The text below walks through data of patent EP0528699B1, “Saishin N derivatives, process for their preparation and anti-ulcer agents containing them” (TOKYO TANABE COMPANY LIMITED, priority 1991, dated 1993).

Test [1] concerns Water-Immersion stress-Induced Ulcers. Nature of the test: Water-Immersion stress-Induced Ulcers. Format: in vivo, male Wister rats. As to conditions: Rattus norvegicus, po, 10 h, read-out: Water-Immersion Stress, inhibiting ratio; for inhibition in vivo at 20 mg/kg: dose 20 mg/kg orally 10 minutes before the exposure to stress. The protocol: (§1) Experiments on Hydrochloric acid-Ethanol-Induced Ulcers, Aspirin-Induced Ulcers, Water-Immersion stress-Induced Ulcers, Shay's Ulcers and Serotonin-Induced Ulcers were carried out using male Wister rats weighing about 200g in groups of six. Experiments on Ischemia-Reperfusion -Induced Gastric Lesions were carried out using male SD rats weighing about 250g in groups of six. Other than for the tests on Ischemia-Reperfusion-Induced Gastric Lesions Models, the test compounds were prepared by mixing thoroughly with polyethyleneglycol and 0.5% sodium carboxymethyl cellulose solution and emulsifying vigorously. Activities against respective ulcer models were evaluated by an inhibiting ratio obtained by dividing the difference between the ulceration indexes of the non-administered group and the test compound group by the non-administered group.
Each rat which had been fasted for 15 hours was immobilized in a stress cage and immersed to chest depth in a water bath at 21°C. Each rat was slaughtered after 10 hours, a length of ulcer formed at the fundus gland area of stomach was measured and ulceration index was calculated based on the length. The test compound was administered orally 10 minutes before the exposure to stress.
(§2) The results of Aspirin-Induced Ulcers, Water-immersion stress-Induced Ulcers, Shay's Ulcers, Serotonin-induced Ulcers and Ischemia-Reperfusion-Induced Gastric lesions are shown in Table 3.

In test [2] the test system is Hydrochloric acid-Ethanol-Induced Ulcers. Nature of the test: Hydrochloric acid-Ethanol-Induced Ulcers. It counts as in vivo, male Wister rats. As to conditions: Rattus norvegicus, intraduodenal, read-out: Inhibition ratio(%); for inhibition in vivo at 20 mg/kg: 3 h, Table 1, dose 20 mg/kg intraduodenally three hours before hydrochloric acid - 60% ethanol. In outline:
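Male Wistar rats (~200 g, n=6), fasted 24 h, received oral 150 mM HCl–60% ethanol (0.5 ml/100 g). Compound in PEG/0.5% CMC emulsion was given intraduodenally 1 or 3 h before. Fundic ulcer length scored 1 h after challenge; inhibition ratio calculated versus the non-administered group.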

Another test has as its system Aspirin-Induced Ulcers. Nature of the test: Aspirin-Induced Ulcers. Format: in vivo, male Wister rats. As to conditions: Rattus norvegicus, 9 h, 5 minutes before 150 mg/kg of aspirin orally, read-out: Aspirin, inhibiting ratio; for inhibition in vivo at 50 mg/kg: dose 50 mg/kg intraduodenally at pylorus ligation. The protocol: as §1
In each rat which had been fasted for 24 hours, the pyloric end of the stomach was ligated, and simultaneously the test compound was administered intraduodenally, and after 5 minutes, 150 mg/kg of aspirin was administered orally, respectively. After 9 hours from ligation, each rat was slaughtered, a length of ulcer formed at the fundus gland area of stomach was measured and ulceration index was calculated based on the length.
as §2

A further test relates to Serotonin-Induced Ulcers. Nature of the test: Serotonin-Induced Ulcers. Format: in vivo, male Wister rats. The note with it: Rattus norvegicus, 4.5 h; dose 20 mg/kg intraduodenally 30 minutes before Serotonin creatinine sulfate 30 mg/kg subcutaneously; read-out: Serotonin, inhibiting ratio. The protocol: as §1
To each rat which had been fasted for 24 hours, 30 mg/kg of a solution of serotonin creatinine sulfate in a saline solution was administered subcutaneously. Each rat was then slaughtered after 4 and a half hours and area of gastric mucosal lesion formed facing the center line of greater curvature of the corpus ventriculi of stomach was measured and ulceration index was calculated based on the area. The test compound was administered intraduodenally 30 minutes before the administration of the Serotonin creatinine sulfate.
as §2

The test system of test [3] is Ischemia-Reperfusion-Induced Gastric Lesions. Nature of the test: Ischemia-Reperfusion-Induced Gastric Lesions. It counts as in vivo, male SD rats. The note with it: dose 40 mg/kg in dimethylsulfoxide from the caudal artery 30 minutes before beginning collection of the blood. The protocol: as §1
Each rat which had been fasted for 24 hours was anesthetized intraperitoneally with Nembutal and immobilized on a constant temperature pad in a dorsal position. After tracheotomy was performed, blood pressure was measured via a transducer for blood pressure from a cannula inserted in right carotid. The abdomen was opened, and the gastroesophageal junction was ligated. A tube was then passed through the duodenostomy into the stomach and the gastric lumen was lavaged with warm saline. 1 ml of 0.1N hydrochloric acid per 100g body weight was instilled into the stomach via the gastric tube and the pylorus was ligated. When the blood pressure became stable, 2% of weight (w/w) of the blood was collected from a cannula inserted in the left carotid into a syringe containing a heparin added saline solution. After 20 minutes, the collecting blood was retransfused and each rat was left to stand for 20 minutes, and slaughtered and the area of gastric mucosal lesions was measured and ulceration index was calculated based on the area. The test compound was dissolved in dimethylsulfoxide and administered at a dose of 40 mg/kg from the caudal artery 30 minutes before beginning collection of the blood.
as §2

A further test relates to Shay's Ulcers. Put plainly: Shay's Ulcers. Format: in vivo, male Wister rats. As to conditions: Rattus norvegicus, intraduodenal, 14 h; dose 50 mg/kg intraduodenally immediately after the ligation; read-out: Shay, inhibiting ratio. The protocol:
as §1
In each rat which had been fasted for 48 hours, the pyloric end of stomach was ligated, and each was kept without giving any food or water for 14 hours. Each rat was then slaughtered, and area of ulcer formed in the forestomach was measured and ulceration inded was calculated based on the area. The test compound was administered intraduodenally immediately after the ligation.
as §2

Marks after values point to notes of the source that are not given here.

As for `CC1=CC(OC(=O)c2ccc([N+](=O)[O-])cc2)C(O)C(C)(C)CC1=O` (stereo not drawn) [AU212, 5-hydroxy-4-(4-nitrobenzoyloxy)-2,6,6-trimethyl-2-cyclohepten-1-one], the inhibition in vivo at 20 mg/kg was 48% in test [1], 90% in test [2], 46% in the test on Aspirin-Induced Ulcers (dose 20 mg/kg intraduodenally at pylorus ligation) and 71% in the test with Serotonin-Induced Ulcers. Besides, the “Ischemia-Reperfusion, inhibiting ratio” value in test [3] is 63(40)**. For the same compound, the inhibition in vivo at 50 mg/kg with Shay's Ulcers worked out at 75%.

Turning to `COC12CC(C)(C)C(O1)C(OC(=O)c1ccc(N)cc1)C=C2C` (stereo not drawn) [AU245, 4-(4-aminobenzoyloxy)-1-methoxy-2,6,6-trimethyl-8-oxabicyclo [3.2.1] oct-2-ene], the inhibition in vivo at 20 mg/kg in test [1] is 38%; in test [2] it was 58%; with Serotonin-Induced Ulcers it was 38%. Besides, the inhibition in vivo at 50 mg/kg with Aspirin-Induced Ulcers amounted to 63%; in the test on Shay's Ulcers it was 35%. Moreover, the “Ischemia-Reperfusion, inhibiting ratio” value in test [3] is recorded as 93(40)**.

For the compound `CC1=CC(OC(=O)c2ccc(N)cc2)C(O)C(C)(C)CC1=O` (stereo not drawn) [AU215, 4-(4-aminobenzoyloxy)-5-hydroxy-2,6,6-trimethyl-2-cyclohepten-1-one], the results for the inhibition in vivo at 20 mg/kg (in test [1]; in test [2]; in the test on Serotonin-Induced Ulcers) were 45%, 56% and 81%, respectively. The inhibition in vivo at 50 mg/kg stood at 66% in the test on Aspirin-Induced Ulcers and 73% with Shay's Ulcers. Also, the “Ischemia-Reperfusion, inhibiting ratio” value in test [3] is reported as 90(40)**.

In the case of `COC12CC(C)(C)C(O1)C(O)CC2C` (stereo not drawn) [AU105B, 2,4-cis-1-methoxy-2,6.6-trimethyl-8-oxabicyclo [3.2.1] octan-4-ol], the inhibition in vivo at 20 mg/kg in test [1] came out at 65%; in test [2], 63%; in the test with Serotonin-Induced Ulcers it was 80%. The inhibition in vivo at 10 mg/kg in test [2] (1 h, Table 2, dose 10 mg/kg intraduodenally one hour before hydrochloric acid - 60% ethanol) came to 86%. Besides, the “Ischemia-Reperfusion, inhibiting ratio” value in test [3] is given as 52(40)*. In the test with Shay's Ulcers, the inhibition in vivo at 50 mg/kg amounted to 44%.

On to `COC1C=C(C)C(=O)CC(C)(C)C1OC(=O)c1ccc(N)cc1N` (stereo not drawn) [AU408, 5-(2,4-diaminobenzoyloxy)-4-methoxy-2,6,6-trimethyl-2-cyclohepten-1-one], for which the results for the inhibition in vivo at 50 mg/kg (in test [1] (dose 50 mg/kg orally 10 minutes before the exposure to stress); with Aspirin-Induced Ulcers; in the test on Shay's Ulcers) were 56%, 73% and 43%, respectively. Further, the inhibition in vivo at 20 mg/kg in test [2] turned out to be 58%; with Serotonin-Induced Ulcers, 44%. Besides, the “Ischemia-Reperfusion, inhibiting ratio” value in test [3] is 75(40)**.
